The assay addresses T1, human PKCθ full length enzyme (Homo sapiens, UniProt Q04759).
T1 construct: human PKCθ full length enzyme (Panvera Cat# P2996); purchased Panvera P2996
Put plainly: PKCθ IMAP assay (fluorescence polarization). The assay is classed as biochemical. As to conditions: human PKCθ full length enzyme, IMAP; average value; read-out: IC50 PKCθ IMAP.

T1 sequence (Q04759 whole entry): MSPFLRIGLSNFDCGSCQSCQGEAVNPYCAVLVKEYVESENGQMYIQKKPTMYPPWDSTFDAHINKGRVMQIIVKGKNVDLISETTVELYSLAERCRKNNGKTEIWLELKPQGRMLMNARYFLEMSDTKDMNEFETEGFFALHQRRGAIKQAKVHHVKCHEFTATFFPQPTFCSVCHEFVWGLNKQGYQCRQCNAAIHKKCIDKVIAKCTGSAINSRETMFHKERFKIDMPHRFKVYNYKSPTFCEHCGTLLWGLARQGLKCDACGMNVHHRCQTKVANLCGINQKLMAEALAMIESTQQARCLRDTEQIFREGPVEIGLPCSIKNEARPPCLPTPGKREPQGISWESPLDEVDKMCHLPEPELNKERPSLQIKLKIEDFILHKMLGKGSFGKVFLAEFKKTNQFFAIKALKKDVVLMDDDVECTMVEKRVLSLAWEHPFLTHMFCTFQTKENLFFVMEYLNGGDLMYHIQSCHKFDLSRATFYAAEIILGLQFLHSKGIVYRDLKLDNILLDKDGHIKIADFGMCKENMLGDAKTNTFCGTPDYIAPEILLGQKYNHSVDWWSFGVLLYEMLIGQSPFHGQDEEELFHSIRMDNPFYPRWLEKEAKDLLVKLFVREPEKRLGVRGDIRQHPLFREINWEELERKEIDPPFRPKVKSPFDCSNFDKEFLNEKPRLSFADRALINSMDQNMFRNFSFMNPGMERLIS

Consider `Cc1c(Nc2c(C#N)cncc2-c2ccc(OCCNCc3ccccc3)cc2)ccc2[nH]ccc12` [Compound 419, 5-{4-[2-(benzylamino)ethoxy]phenyl}-4-[(4-methyl-1H-indol-5-yl)amino]nicotinonitrile], for which the IC50 stood at 4 nM. Consider `Cc1c(Nc2c(C#N)cncc2-c2ccc(OCCNC3CCN(C)CC3)cc2)ccc2[nH]ccc12` [Compound 420, 4-[(4-methyl-1H-indol-5-yl)amino]-5-(4-{2-[(1-methylpiperidin-4-yl)amino]ethoxy}phenyl)nicotinonitrile], for which the 50% inhibitory concentration (IC50) was found to be 3 nM. In the case of `Cc1c(Nc2c(C#N)cncc2-c2ccc(OCCNCC3CCN(C)CC3)cc2)ccc2[nH]ccc12` [Compound 421, 4-[(4-methyl-1H-indol-5-yl)amino]-5-[4-(2-{[(1-methylpiperidin-4-yl)methyl]amino}ethoxy)phenyl]nicotinonitrile], the concentration for half-maximal inhibition (IC50) stood at 3 nM. Consider `Cc1c(Nc2c(C#N)cncc2-c2ccc(OCCN3CCC(CO)CC3)cc2)ccc2[nH]ccc12` [Compound 422, 5-(4-{2-[4-(hydroxymethyl)piperidin-1-yl]ethoxy}phenyl)-4-[(4-methyl-1H-indol-5-yl)amino]nicotinonitrile], for which the IC50 is 8 nM. Under `Cc1c(Nc2c(C#N)cncc2-c2ccc(OCCN3CCC(N4CCCC4)CC3)cc2)ccc2[nH]ccc12` [Compound 423, 4-[(4-methyl-1H-indol-5-yl)amino]-5-{4-[2-(4-pyrrolidin-1-ylpiperidin-1-yl)ethoxy]phenyl}nicotinonitrile] stands 11 nM; under `Cc1c(Nc2c(C#N)cncc2-c2ccc(OCCN3CCC(N4CCOCC4)CC3)cc2)ccc2[nH]ccc12` [Compound 424, 4-[(4-methyl-1H-indol-5-yl)amino]-5-{4-[2-(4-morpholin-4-ylpiperidin-1-yl)ethoxy]phenyl}nicotinonitrile], 4 nM. For `CCN1CCN(CCOc2ccc(-c3cncc(C#N)c3Nc3ccc4[nH]ccc4c3C)cc2)CC1` [Compound 425, 5-{4-[2-(4-ethylpiperazin-1-yl)ethoxy]phenyl}-4-[(4-methyl-1H-indol-5-yl)amino]nicotinonitrile], the half-inhibitory concentration (IC50) came out at 9 nM. With `Cc1c(Nc2c(C#N)cncc2-c2ccc(OCCN3CCCN(C)CC3)cc2)ccc2[nH]ccc12` [Compound 426, 5-{4-[2-(4-methyl-1,4-diazepan-1-yl)ethoxy]phenyl}-4-[(4-methyl-1H-indol-5-yl)amino]nicotinonitrile], the IC50 was determined as 13 nM.

`Cc1c(Nc2c(C#N)cncc2-c2ccc(OCCN3CCN(CCO)CC3)cc2)ccc2[nH]ccc12` [Compound 427, 5-(4-{2-[4-(2-hydroxyethyl)piperazin-1-yl]ethoxy}phenyl)-4-[(4-methyl-1H-indol-5-yl)amino]nicotinonitrile]: the IC50 is 14 nM. Consider `Cc1c(Nc2c(C#N)cncc2-c2ccc(OCCN3CCN(CCN(C)C)CC3)cc2)ccc2[nH]ccc12` [Compound 428, 5-[4-(2-{4-[2-(dimethylamino)ethyl]piperazin-1-yl}ethoxy)phenyl]-4-[(4-methyl-1H-indol-5-yl)amino]nicotinonitrile], for which the concentration for half-maximal inhibition (IC50) turned out to be 15 nM.

Take `Cc1c(Nc2c(C#N)cncc2-c2ccc(OCCNCCCn3ccnc3)cc2)ccc2[nH]ccc12` [Compound 429, 5-[4-(2-{[3-(1H-imidazol-1-yl)propyl]amino}ethoxy)phenyl]-4-[(4-methyl-1H-indol-5-yl)amino]nicotinonitrile]: the IC50 came out at 5 nM.

With `Cc1c(Nc2c(C#N)cncc2-c2ccc(OCCN3CCN(c4ccccn4)CC3)cc2)ccc2[nH]ccc12` [Compound 430, 4-[(4-methyl-1H-indol-5-yl)amino]-5-{4-[2-(4-pyridin-2-ylpiperazin-1-yl)ethoxy]phenyl}nicotinonitrile], the IC50 stood at 17 nM. For the compound `Cc1c(Nc2c(C#N)cncc2-c2ccc(OCCN3CCN(c4ccncc4)CC3)cc2)ccc2[nH]ccc12` [Compound 431, 4-[(4-methyl-1H-indol-5-yl)amino]-5-{4-[2-(4-pyridin-4-ylpiperazin-1-yl)ethoxy]phenyl}nicotinonitrile], the IC50 amounted to 5 nM. Under `Cc1c(Nc2c(C#N)cncc2-c2ccc(OCCNCc3ccccn3)cc2)ccc2[nH]ccc12` [Compound 432, 4-[(4-methyl-1H-indol-5-yl)amino]-5-(4-{2-[(pyridin-2-ylmethyl)amino]ethoxy}phenyl)nicotinonitrile] stands 9 nM; under `Cc1c(Nc2c(C#N)cncc2-c2ccc(OCCNCc3cccnc3)cc2)ccc2[nH]ccc12` [Compound 433, 4-[(4-methyl-1H-indol-5-yl)amino]-5-(4-{2-[(pyridin-3-ylmethyl)amino]ethoxy}phenyl)nicotinonitrile], 10 nM; under `Cc1c(Nc2c(C#N)cncc2-c2ccc(OCCNCc3ccncc3)cc2)ccc2[nH]ccc12` [Compound 434, 4-[(4-methyl-1H-indol-5-yl)amino]-5-(4-{2-[(pyridin-4-ylmethyl)amino]ethoxy}phenyl)nicotinonitrile], 14 nM.

As for `Cc1c(Nc2c(C#N)cncc2-c2ccc(OCCN3CCC(c4ccccc4)CC3)cc2)ccc2[nH]ccc12` [Compound 435, 4-[(4-methyl-1H-indol-5-yl)amino]-5-{4-[2-(4-phenylpiperidin-1-yl)ethoxy]phenyl}nicotinonitrile], the IC50 was determined as 49 nM. With `Cc1c(Nc2c(C#N)cncc2-c2ccc(CN3CCC(N(C)C)CC3)o2)ccc2[nH]ccc12` [Compound 436, 5-(5-{[4-(dimethylamino)piperidin-1-yl]methyl}-2-furyl)-4-[(4-methyl-1H-indol-5-yl)amino]nicotinonitrile], the IC50 turned out to be 1 nM. Take `Cc1c(Nc2c(C#N)cncc2-c2ccc(CN3CCN(C(C)C)CC3)o2)ccc2[nH]ccc12` [Compound 437, 5-{5-[(4-isopropylpiperazin-1-yl)methyl]-2-furyl}-4-[(4-methyl-1H-indol-5-yl)amino]nicotinonitrile]: the IC50 amounted to 2 nM. Turning to `Cc1c(Nc2c(C#N)cncc2-c2cc3cc(OCCN4CCN(C)CC4)ccc3o2)ccc2[nH]ccc12` [Compound 438, 4-[(4-methyl-1H-indol-5-yl)amino]-5-{5-[2-(4-methylpiperazin-1-yl)ethoxy]-1-benzofuran-2-yl}nicotinonitrile], the half-inhibitory concentration (IC50) is 4 nM. Take `COc1ccc(-c2cncc(C#N)c2NCCN2CCN(C)CC2)cc1OC` [Compound 439, 5-(3,4-dimethoxyphenyl)-4-{[2-(4-methylpiperazin-1-yl)ethyl]amino}nicotinonitrile]: the half-inhibitory concentration (IC50) came out at 5850 nM. Regarding `COc1ccc(-c2cncc(C#N)c2NCCCN2CCN(C)CC2)cc1OC` [Compound 440, 5-(3,4-dimethoxyphenyl)-4-{[3-(4-methylpiperazin-1-yl)propyl]amino}nicotinonitrile], the half-inhibitory concentration (IC50) amounted to 14300 nM.

For `COc1ccc(-c2cncc(C#N)c2NC[C@H]2CC[C@H](CN)CC2)cc1OC` [Compound 441, 4-({[trans-4-(aminomethyl)cyclohexyl]methyl}amino)-5-(3,4-dimethoxyphenyl)nicotinonitrile], the IC50 came to 529 nM. Take `COc1ccc(-c2cncc(C#N)c2NC[C@H]2CC[C@H](N)CC2)cc1OC` [Compound 442, 4-{[(trans-4-aminocyclohexyl)methyl]amino}-5-(3,4-dimethoxyphenyl)nicotinonitrile]: the IC50 was 1770 nM.

As for `COc1ccc(-c2cncc(C#N)c2NCCC2CCNCC2)cc1OC` [Compound 444, 5-(3,4-dimethoxyphenyl)-4-[(2-piperidin-4-ylethyl)amino]nicotinonitrile], the 50% inhibitory concentration (IC50) came out at 2460 nM. Under `COc1ccc(-c2cncc(C#N)c2NCC2CCNCC2)cc1OC` [Compound 445, 5-(3,4-dimethoxyphenyl)-4-[(piperidin-4-ylmethyl)amino]nicotinonitrile] stands 20400 nM. On to `COc1ccc(-c2cncc(C#N)c2N[C@H]2CC[C@@H](N)CC2)cc1OC` [Compound 446, 4-[(cis-4-aminocyclohexyl)amino]-5-(3,4-dimethoxyphenyl)nicotinonitrile], for which the concentration for half-maximal inhibition (IC50) is 4880 nM.

Consider `COc1ccc(-c2cncc(C#N)c2NCCC2CCN(C)CC2)cc1OC` [Compound 447, 5-(3,4-dimethoxyphenyl)-4-{[2-(1-methylpiperidin-4-yl)ethyl]amino}nicotinonitrile], for which the IC50 is 1930 nM. Under `COc1ccc(-c2cncc(C#N)c2NCC2CCN(C)CC2)cc1OC` [Compound 448, 5-(3,4-dimethoxyphenyl)-4-{[(1-methylpiperidin-4-yl)methyl]amino}nicotinonitrile] stands 14100 nM; under `Cc1c(Nc2c(C#N)cncc2-c2ccc(CN3CCN(C)CC3)cc2)ccc2[nH]ccc12` [Compound 449, 4-[(4-methyl-1H-indol-5-yl)amino]-5-{4-[(4-methylpiperazin-1-yl)methyl]phenyl}nicotinonitrile], 5 nM; under `Cc1c(Nc2c(C#N)cncc2-c2ccc(CN3CCCC3)cc2)ccc2[nH]ccc12` [Compound 450, 4-[(4-methyl-1H-indol-5-yl)amino]-5-[4-(pyrrolidin-1-ylmethyl)phenyl]nicotinonitrile], 16 nM.

With `Cc1c(Nc2c(C#N)cncc2-c2ccc(CN3CCOCC3)cc2)ccc2[nH]ccc12` [Compound 451, 4-[(4-methyl-1H-indol-5-yl)amino]-5-[4-(morpholin-4-ylmethyl)phenyl]nicotinonitrile], the 50% inhibitory concentration (IC50) was 9 nM.

With `Cc1c(Nc2c(C#N)cncc2-c2ccc(CN(C)C)cc2)ccc2[nH]ccc12` [Compound 452, 5-{4-[(dimethylamino)methyl]phenyl}-4-[(4-methyl-1H-indol-5-yl)amino]nicotinonitrile], the IC50 came out at 8 nM.

Take `Cc1c(Nc2c(C#N)cncc2-c2ccnc(CN3CCOCC3)c2)ccc2[nH]ccc12` [Compound 453, 4-[(4-methyl-1H-indol-5-yl)amino]-2′-(morpholin-4-ylmethyl)-3,4′-bipyridine-5-carbonitrile]: the IC50 turned out to be 60 nM. As for `Cc1c(Nc2c(C#N)cncc2-c2cccc(CN3CCN(C)CC3)c2)ccc2[nH]ccc12` [Compound 454, 4-[(4-methyl-1H-indol-5-yl)amino]-5-{3-[(4-methylpiperazin-1-yl)methyl]phenyl}nicotinonitrile], the 50% inhibitory concentration (IC50) is 3 nM.

Source of the values: US7781591B2, “Substituted 3-cyanopyridines as protein kinase inhibitors” (Wyeth LLC, priority 2006, dated 2010).
